Experimental data from ChEMBL document CHEMBL1156581, “Polychlorinated compounds with PPAR-gamma agonistic effect from the medicinal fungus Phellinus ribis” (Bioorg Med Chem Lett, 2008).
Calls of active or inactive are those of the source. The rule behind the calls is not given here.

What was measured:
[1] = target: T1, Peroxisome proliferator-activated receptor gamma (Homo sapiens) (UniProt P37231); experiment: Agonist activity at PPARgamma expressed in mouse NIH3T3 cells assessed as maximum activation at 100 uM after 16 hrs by reporter gene assay; type: functional, cell-based
T1 sequence (whole entry): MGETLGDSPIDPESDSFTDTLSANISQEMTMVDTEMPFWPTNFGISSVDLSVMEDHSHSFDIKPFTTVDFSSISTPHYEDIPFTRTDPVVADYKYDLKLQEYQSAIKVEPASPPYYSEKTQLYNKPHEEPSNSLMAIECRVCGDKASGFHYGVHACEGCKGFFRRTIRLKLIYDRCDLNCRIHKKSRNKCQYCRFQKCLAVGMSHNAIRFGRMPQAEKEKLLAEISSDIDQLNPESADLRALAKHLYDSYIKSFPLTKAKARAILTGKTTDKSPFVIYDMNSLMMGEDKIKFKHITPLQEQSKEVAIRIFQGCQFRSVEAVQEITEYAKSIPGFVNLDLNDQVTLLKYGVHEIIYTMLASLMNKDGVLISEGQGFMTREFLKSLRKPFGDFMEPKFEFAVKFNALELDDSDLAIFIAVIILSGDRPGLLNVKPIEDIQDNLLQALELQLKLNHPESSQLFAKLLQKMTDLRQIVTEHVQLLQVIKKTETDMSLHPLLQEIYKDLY

[2] = target: T1, Peroxisome proliferator-activated receptor gamma (Homo sapiens); experiment: Agonist activity at PPARgamma expressed in mouse NIH3T3 cells assessed as maximum activation at 10 uM after 16 hrs by reporter gene assay; type: functional, cell-based
Escherichia coli = experiment: Antimicrobial activity against Escherichia coli; type: functional, organism-based
Staphylococcus aureus = experiment: Antimicrobial activity against Staphylococcus aureus; type: functional, organism-based
Bacillus subtilis = experiment: Antimicrobial activity against Bacillus subtilis; type: functional, organism-based

| Structure (SMILES) | fold change (FC) [1] | fold change (FC) [2] | Activity (Escherichia coli) | Activity (Staphylococcus aureus) | Activity (Bacillus subtilis) |
| --- | --- | --- | --- | --- | --- |
| COc1c(Cl)c(Cl)c(O)c(Cl)c1Cl | 8.4 | – | – | – | – |
| COc1c(Cl)c(Cl)c(Oc2c(O)c(Oc3c(Cl)c(Cl)c(OC)c(Cl)c3Cl)c(Cl)c(OC)c2Cl)c(Cl)c1Cl | – | 2 | inactive | inactive | inactive |
| COc1c(Cl)c(Cl)c(Oc2c(O)c(Cl)c(OC)c(Cl)c2Oc2c(Cl)c(Cl)c(OC)c(Cl)c2Cl)c(Cl)c1Cl | – | 2 | inactive | inactive | inactive |
| COc1c(Cl)c(Cl)c(Oc2c(Cl)c(OC)c(Cl)c(Cl)c2Oc2c(O)c(Cl)c(Cl)c(OC)c2Cl)c(Cl)c1Cl | – | 8.5 | inactive | inactive | inactive |
